The values below are quoted from earlier work in US20240130994A1, “IONIC LIQUID FORMULATIONS FOR TREATING DIABETES” (i2O Therapeutics, Inc., priority 2020, published 2024).

For this data set the following is noted: in the presence of well-known permeation enhancers; cited from earlier work.

For `CCCCCCCCCCCCCCCC(=O)N[C@@H](CCC(=O)NCCCC[C@H](NC(=O)[C@H](C)NC(=O)[C@H](C)NC(=O)[C@H](CCC(N)=O)NC(=O)CNC(=O)[C@H](CCC(=O)O)NC(=O)[C@H](CC(C)C)NC(=O)[C@H](Cc1ccc(O)cc1)NC(=O)[C@H](CO)NC(=O)[C@H](CO)NC(=O)[C@@H](NC(=O)[C@H](CC(=O)O)NC(=O)[C@H](CO)NC(=O)[C@@H](NC(=O)[C@H](Cc1ccccc1)NC(=O)[C@@H](NC(=O)CNC(=O)[C@H](CCC(=O)O)NC(=O)[C@H](C)NC(=O)[C@@H](N)Cc1cnc[nH]1)[C@@H](C)O)[C@@H](C)O)C(C)C)C(=O)N[C@@H](CCC(=O)O)C(=O)N[C@@H](Cc1ccccc1)C(=O)N[C@H](C(=O)N[C@@H](C)C(=O)N[C@@H](Cc1c[nH]c2ccccc12)C(=O)N[C@@H](CC(C)C)C(=O)N[C@H](C(=O)N[C@@H](CCCNC(=N)N)C(=O)NCC(=O)N[C@@H](CCCNC(=N)N)C(=O)NCC(=O)O)C(C)C)[C@@H](C)CC)C(=O)O` [liraglutide], the absorption of liraglutide entry was “only minute absorption”.
